Reference: patent US20260265184A1, “DEGRADABLE CROSSLINKING AGENT” (NAGASE CHEMTEX CORPORATION, priority 2023, published 2026)

Tests used:
Type in all cases: physicochemical
[1] = Solvent solubility evaluation of the degradable cross-linking agents; conditions: for Solvent solubility, Isopropanol / Solvent solubility, Methanol / Solvent solubility, Methylisobutyl ketone / Solvent solubility, N-methylpyrrolidone / Solvent solubility, Propylene glycol monomethyl ether: 0.5 mL solvent added to 2 mg, visual, room temperature, then heat gun; for Solvent solubility, overall assessment in words: summary over the solvents of Tables 1 and 2
Text: The degree of dissolution was visually observed. When an undissolved portion remained at room temperature, the mixture was sufficiently heated with a heat gun and then visually observed again. The scoring was as follows: 3 points for those that completely dissolved at room temperature; 2 points for those in which an undissolved portion remained at room temperature but completely dissolved after heating; 1 point for those in which a slight amount of an undissolved portion remained after heating; and 0 points for those in which a large amount of an undissolved portion remained after heating. Here, the degradable cross-linking agents in liquid form were evaluated for compatibility with the solvents.

[2] = Degradation of the compound on adding sodium hypochlorite aqueous solution; conditions: 3% sodium hypochlorite aqueous solution added to the compound
[3] = Solubility of the degradable cross-linked product (cured film) in water / organic solvent
Description: The solution was applied onto a glass substrate to give a cured film thickness of 0.1 μm, and then dried and cured at 150° C. for 10 minutes to obtain a degradable cross-linked product.

[4] = Degradation of the degradable cross-linked product on immersion in oxidizing agent solution
Description: The method for degrading a degradable cross-linked product according to the present invention includes bringing the degradable cross-linked product into contact with an aqueous solution containing an oxidizing agent at 100° C. or lower.
The conditions for bringing the degradable cross-linked product into contact with the aqueous solution containing the oxidizing agent include a temperature of 100° C. or lower, preferably of 15° C. to 50° C. The conditions preferably include a duration of 60 minutes or shorter, more preferably 10 minutes or shorter. If necessary, the cross-linked product may be shaken or stirred during the reaction with the oxidizing agent. Non-limiting specific examples of the method for bringing the degradable cross-linked product into contact with the aqueous solution containing the oxidizing agent include immersing the degradable cross-linked product in the aqueous solution containing the oxidizing agent, or spraying or adding dropwise the aqueous solution containing the oxidizing agent onto the degradable cross-linked product.
An amount of 0.3 g of the compound of formula (A), 0.1 g of poly(methylhydrosiloxane), and 4.0 mg of a platinum catalyst (trade name: CAT-PL-50T, available from Shin-Etsu Chemical Co., Ltd.) were added to 40 g of dimethyl sulfoxide to obtain a thermosetting composition solution. The solution was applied onto a glass substrate to give a cured film thickness of 0.1 μm, and then dried and cured at 150° C. for 10 minutes to obtain a degradable cross-linked product.

[5] = cured film immersed in 3% sodium hypochlorite aqueous solution

| SMILES | Solvent solubility, Isopropanol [1] | Solvent solubility, Methanol [1] | Solvent solubility, Methylisobutyl ketone [1] | Solvent solubility, N-methylpyrrolidone [1] | Solvent solubility, Propylene glycol monomethyl ether [1] | Degradation of the compound by oxidizing agent [2] | Solubility of the degradable cross-linked product made with the compound ([3]; in water) | Degradation of the degradable cross-linked product made with the compound [4, 5] | Solvent solubility, overall assessment in words ([1]; listed as Example 9) | Solubility of the degradable cross-linked product made with the compound ([3]; in THF and water) | Degradation of the degradable cross-linked product made with the compound ([4]; cured film immersed in 3-fold dilution of a 3% sodium hypochlorite aqueous solution with THE) | Solvent solubility, overall assessment in words [1] | Solvent solubility, overall assessment in words ([1]; listed as Example 8) | Solubility of the degradable cross-linked product made with the compound ([3]; in isopropanol and water) | Degradation of the degradable cross-linked product made with the compound ([4]; cured film immersed in 2-fold dilution of a 3% sodium hypochlorite aqueous solution with isopropanol) |
| --- | --- | --- | --- | --- | --- | --- | --- | --- | --- | --- | --- | --- | --- | --- | --- |
| C=CCNC(=O)NNC(=O)CCCCCCCCC(=O)NNC(=O)NCC=C [Formula (B)] | 1 | 2 | 0 | 3 | 0 | foaming and degradation of the compound were observed | insoluble | foaming and removal of the product from the substrate were observed |  |  |  |  |  |  |  |
| O=C(CCS)NNC(=O)NCCCCCCNC(=O)N(CCCCCCNC(=O)NNC(=O)CCS)C(=O)NCCCCCCNC(=O)NNC(=O)CCS [Formula (J)] | 1 | 1 | 0 | 1 | 0 | foaming and degradation of the compound were observed | insoluble | foaming and removal of the product from the substrate were observed | slightly less soluble than the compound of Example 3 but exhibited an acceptable level of solubility |  |  |  |  |  |  |
| O=C(CCCCCOC(=O)NNC(=O)OCCO)NNC(=O)c1cccc(C(=O)NNC(=O)CCCCCOC(=O)NNC(=O)OCCO)c1 [Formula (M)] | 0 | 3 | 0 | 3 | 3 | foaming and degradation of the compound were observed |  |  |  | insoluble | foaming and removal of the product from the substrate were observed |  |  |  |  |
| C=CCOC(=O)NNC(=O)CCC(NC(=O)NNC(=O)CCCC(=O)NNC(=O)NC(CCC(=O)NNC(=O)OCC=C)C(=O)NNC(=O)OCC=C)C(=O)NNC(=O)OCC=C (stereo not drawn) [Formula (L)] | 1 | 2 | 1 | 3 | 3 | foaming and degradation of the compound were observed | insoluble | foaming and removal of the product from the substrate were observed |  |  |  |  |  |  |  |
| C=CCCC(=O)NNC(=O)CCCCCCCCC(=O)NNC(=O)OCC=C [Formula (A), reference compound] | 0 | 0 | 0 | 0 | 0 | foaming and degradation of the compound were observed | insoluble | foaming and removal of the product from the substrate were observed |  |  |  | poorly soluble in all the solvents |  |  |  |
| C=CCOC(=O)NNC(=O)CCCO [Formula (G)] | 3 | 3 | 2 | 3 | 3 | foaming and degradation of the compound were observed | insoluble | foaming and removal of the product from the substrate were observed |  |  |  |  |  |  |  |
| C=C(C)C(=O)OCCNC(=O)NNC(=O)c1cc(O)cc(O)c1 [Formula (I)] | 0 | 3 | 0 | 3 | 0 | foaming and degradation of the compound were observed |  |  |  |  |  |  | slightly less soluble than the compound of Example 3 but exhibited an acceptable level of solubility | insoluble | foaming and removal of the product from the substrate were observed |
| C=CCOC(=O)NNC(=O)CCCCCCCCC(=O)NNC(=O)OCC=C [Formula (D)] | 3 | 3 | 2 | 3 | 3 | foaming and degradation of the compound were observed | insoluble | foaming and removal of the product from the substrate were observed |  |  |  |  |  |  |  |
| C=CCOC(=O)NNC(=O)NCCCCCCNC(=O)NNC(=O)OCC=C [Formula (C)] | 1 | 2 | 0 | 3 | 2 | foaming and degradation of the compound were observed | insoluble | foaming and removal of the product from the substrate were observed |  |  |  |  |  |  |  |
